Experimental data published in patent US10093673B2, “Tetracyclic pyridone compounds as antivirals” (Novartis AG, priority 2016, dated 2018).
≈ marks a conversion by molar mass, not a printed value.

Tests used:
HBsAg secretion = test: HBsAg assay (ELISA of secreted HBsAg, HepG2-Clone42 cells); assay type: cell-based, HBV; settings: Hepatitis B virus, read-out: HBsAg EC50, HepG2-Clone42 cells, HBsAg secretion reduced 50% vs DMSO control
Method: HepG2-Clone42, a Tet-inducible HBV-expressing cell line with a stably integrated 1.3mer copy of the HBV ayw strain, was generated based on the Tet-inducible HepAD38 cell line with slight modifications. Ladner S K, et al., Antimicrobial Agents and Chemotherapy. 41(8):1715-1720 (1997). HepG2-Clone42 cells were cultured in DMEM/F-12+Glutamax™ (Life Technologies, Carlsbad, Calif., USA), supplemented with 10% fetal bovine serum (Life Technologies), G-418 (Corning, Manassas, Va., USA) at a final concentration of 0.5 mg/mL, and 5 μg/mL Doxycycline (Sigma, St. Louis, Mo., USA) and maintained in 5% CO2 at 37° C.
HepG2-Clone42 cells were seeded in into black clear-bottom 96-well plates at a concentration of 6.0×10^4 cells/well. 24 hours post-seeding, the cells were treated with 200 μl/well of media containing five-fold serial dilutions of compounds in DMSO. DMSO alone was used as the no drug control. The final DMSO concentration in all wells was 0.5%.
The HBsAg ELISA kit (Alpha Diagnostic International, San Antonio, Tex., USE, Catalog #4110) was used to determine the level (semi-quantitative) of secreted HBV sAg.
The HBSAg ELISA assay was performed following the manufacturer's protocol as described.
Step 1. Pipet 100 μL each of compound or DMSO treated samples into HBsAg ELISA plates. Seal plates and incubate at room temp for 60 minutes.
Step 2. Aspirate samples and wash three times with Wash Buffer. Dispense 100μ of antibody-HRP conjugate to each well. Incubate at room temp for 30 minutes.
Step 3. Aspirate samples and wash three times with Wash Buffer. Add 100 μL of TMB Substrate to all wells and incubate 15 minutes at room temp.
Step 4. Dispense 100 μL of Stop Solution to each well. Measure absorbance of ELISA plate at 450 nm.
EC50 values were determined as follows: • 1. Determine the percent of HBsAg secretion inhibition. Calculate the percent inhibition on of HBsAg secretion inhibition using the following equation: 100×(XC−MB)/(MD−MB) • where XC is the absorbance signal from compound-treated well; MB is average absorbance signal (background signal) for column 12 (no cells+HBsAg ELISA sample buffer) and MD is average absorbance signal from DMSO-treated wells. Then calculate EC50 values by non-linear regression using a four parameter curve logistic equation. The curve fit model employed is XLFit Dose Response One Site Model 204: y=(A+((B−A)/(1+(10^((C−x)*D))))) where A is the minimum y value, B is the maximum y value, C is the log EC50 value, and D is the slope factor. High Throughput Solubility Measurement • 1. Transfer 20 ul of 10 mM DMSO stock solution into a 96 deep well plate labeled as […] and 5 ul to another plate labeled as compound standard plate. • 2. Place the buffer plate in a Multi-Tainer MT-4 container (FTS Systems). Freeze dry overnight to remove DMSO. • 3. Add 100 ul of Cl-free PBS (pH 6.8) to the dried compound in the buffer plate and 95 ul of DMSO to the standard plate. • 4. The buffer plate is be sonicated in a water bath for 10 min. • 5. The two plates are then placed onto the VWR orbital shaker to equilibrate for 24 hours at room temperature. • 6. The buffer plate is centrifuged at 4000 rpm for 30 min. • 7. Transfer 10 ul aliquots of supernatant from the buffer plate to a sample plate and dilute 5 fold. • 8. Inject both compound standard and sample into the UPLC/UV/CLND/MS to generate multi detector qualitative and quantitive analytical data. • 9. Data was processed with Xcalibur. CLND equimolar response was used for measuring compound concentration of DMSO solution. UV270 nm or MS relative ratio was used for solubility determination.

[1] = Pharmacokinetics in mice (iv and PO); assay type: in vivo; settings: for Cmax / Tmax / AUC / clearance / bioavailability / Vd: mouse, in vivo; for bioavailability: read-out: Oral BA (% F); for Vd: read-out: Vss
[2] = Pharmacokinetics in rat (iv and PO); assay type: in vivo; settings: for Cmax / Tmax / AUC / clearance / bioavailability / Vd: in vivo; for bioavailability: read-out: Oral BA (% F); for Vd: read-out: Vss
Nav1.5 = Nav1.5 (Homo sapiens (Human), UniProt Q14524); test: Inhibition of cardiac sodium ion channel Nav1.5; assay type: biochemical
[3] = Pharmacokinetics in dog (iv and PO); assay type: in vivo; settings: for Cmax / Tmax / AUC / clearance / bioavailability / Vd: in vivo; for bioavailability: read-out: Oral BA (% F); for Vd: read-out: Vss
[4] = High throughput solubility measurement in PBS; assay type: physicochemical; settings: Cl-free PBS, aqueous buffer, thermodynamic from solid; PBS (phosphate-buffered saline), pH 6.8, 24 hours at room temperature
Source text: The following table provides data for solubility of compounds of the invention in PBS (phosphate-buffered saline), using a standard solubility screening method.

SMILES: COCCCOc1cc2c(cc1OC)-c1cc(=O)c(C(=O)O)cn1[C@H]1[C@@H]2OCC1(C)C [Compound 4.1, (3aR,12bR)-10-methoxy-11-(3-methoxypropoxy)-3,3-dimethyl-7-oxo-3,3a,7,12b-tetrahydro-2H-furo[3,2-c]pyrido[2,1-a]isoquinoline-6-carboxylic acid]
- EC50 (HBsAg secretion): 0.3 nM
- T1/2term. [1]: 1.8 h
- Cmax ([1]; PO 2.0 mg/kg): 1.9 µM
- Tmax ([1]; PO 2.0 mg/kg): 1 h
- AUC ([1]; PO 2.0 mg/kg, read-out: AUC PO): 7.2 µM·h
- clearance ([1]; iv 1.0 mg/kg): 12.7 mL/min/kg
- bioavailability ([1]; iv 1.0 mg/kg, PO 2.0 mg/kg): 100%
- AUC ([1]; iv 1.0 mg/kg, read-out: AUC iv): 2.9 µM·h
- Vd ([1]; iv 1.0 mg/kg): 1.5 L/kg
- T1/2term. [2]: 1.2 h
- Cmax ([2]; PO 2.0 mg/kg): 2.6 µM
- Tmax ([2]; PO 2.0 mg/kg): 2 h
- AUC ([2]; PO 2.0 mg/kg, read-out: AUC PO): 10.2 µM·h
- clearance ([2]; iv 1.0 mg/kg): 4.9 mL/min/kg
- bioavailability ([2]; iv 1.0 mg/kg, PO 2.0 mg/kg): 65%
- AUC ([2]; iv 1.0 mg/kg, read-out: AUC iv): 8 µM·h
- Vd ([2]; iv 1.0 mg/kg): 0.75 L/kg
- EC50 (Nav1.5): > 500000 nM
- T1/2term. [3]: 12.3 h
- Cmax ([3]; PO 1.0 mg/kg): 3.3 µM
- Tmax ([3]; PO 1.0 mg/kg): 0.8 h
- AUC ([3]; PO 1.0 mg/kg, read-out: AUC PO): 12.8 µM·h
- clearance ([3]; iv 0.5 mg/kg): 2.7 mL/min/kg
- bioavailability ([3]; iv 0.5 mg/kg, PO 1.0 mg/kg): 94%
- AUC ([3]; iv 0.5 mg/kg, read-out: AUC iv): 6.2 µM·h
- Vd ([3]; iv 0.5 mg/kg): 1.7 L/kg
- solubility at 24 h [4]: 1600 µM (≈ 687 µg/mL)

SMILES: COCCCOc1cc2c(cc1OC)-c1c(F)c(=O)c(C(=O)O)cn1[C@H]1[C@@H]2CCC1(C)C [Compound 3.1, (3aS,12bR)-8-fluoro-10-methoxy-11-(3-methoxypropoxy)-3,3-dimethyl-7-oxo-1,2,3,3a,7,12b-hexahydrocyclopenta[c]pyrido[2,1-a]isoquinoline-6-carboxylic acid]
- EC50 (HBsAg secretion): 0.3 nM
- T1/2term. [1]: 3.8 h
- Cmax ([1]; PO 2.0 mg/kg): 3 µM
- Tmax ([1]; PO 2.0 mg/kg): 0.5 h
- AUC ([1]; PO 2.0 mg/kg, read-out: AUC PO): 9.5 µM·h
- clearance ([1]; iv 1.0 mg/kg): 6.9 mL/min/kg
- bioavailability ([1]; iv 1.0 mg/kg, PO 2.0 mg/kg): 87%
- AUC ([1]; iv 1.0 mg/kg, read-out: AUC iv): 5.5 µM·h
- Vd ([1]; iv 1.0 mg/kg): 1 L/kg
- T1/2term. [2]: 9.2 h
- Cmax ([2]; PO 2.0 mg/kg): 6.5 µM
- Tmax ([2]; PO 2.0 mg/kg): 0.5 h
- AUC ([2]; PO 2.0 mg/kg, read-out: AUC PO): 19.6 µM·h
- clearance ([2]; iv 1.0 mg/kg): 2.1 mL/min/kg
- bioavailability ([2]; iv 1.0 mg/kg, PO 2.0 mg/kg): 57%
- AUC ([2]; iv 1.0 mg/kg, read-out: AUC iv): 16.6 µM·h
- Vd ([2]; iv 1.0 mg/kg): 0.6 L/kg
- T1/2term. [3]: 7.2 h
- Cmax ([3]; PO 1.0 mg/kg): 6.2 µM
- Tmax ([3]; PO 1.0 mg/kg): 1.5 h
- AUC ([3]; PO 1.0 mg/kg, read-out: AUC PO): 26.7 µM·h
- clearance ([3]; iv 0.5 mg/kg): 1.3 mL/min/kg
- bioavailability ([3]; iv 0.5 mg/kg, PO 1.0 mg/kg): 96%
- AUC ([3]; iv 0.5 mg/kg, read-out: AUC iv): 13.3 µM·h
- Vd ([3]; iv 0.5 mg/kg): 0.6 L/kg
- solubility at 24 h [4]: 1600 µM (≈ 713 µg/mL)
